# Source: patent US20120016019A1, “PHARMACEUTICAL COMPOSITION FOR TREATING OR PREVENTING CANCER” (priority 2010, published 2012)
# “And” between values parts separate entries of the source, which are not always exact repeats. Identical values can stand only once. Like-named read-outs stand apart in the source and are kept apart here.
# Columns and labels:
# HCC 1419 [1] = assay: Cell counts, HCC 1419; assay type: cell-based; conditions: for cell counts: single wells
# Experimental: Cells were plated into 48-well Corning CellBind™ plates at densities of 20,000 cells for normal cells and 10,000˜20,000 cells for cancer cells. […] The first time point treated with the composition of the invention is 0 h.
# Cells were harvested using Trypsin-EDTA at the designated time points. […] Two 48-well plates were used per cell line, and they were measured at 0 h, 12 h, 24 h, 48 h, 4 d and 7 d, respectively.
# In the 1st plate, cells were treated with the composition according to the invention and medium was changed at 0 h and 3 d. […] As a result, LC-50 curves were generated in the 1st week.
# HeLa = assay: Cell counts, HeLa; assay type: cell-based
# Experimental: (§1) As a result, LC-50 curves were generated in the 1st week.
# (§2) In the 2nd plate, 7 d of the 1st week (LC-50) is the same as 0 h of the 2nd week (recovery).
# (§3) At 0 h of the 2nd week, medium was exchanged with untreated medium for the remainder of the experiment. The untreated controls were not measured in the 2nd week (recovery) due to overconfluence by the end of the 1st week. As a result, Recovery curves were generated in the 2nd week.
# CCD-1074sk = assay: in vitro; assay type: cell-based; conditions: human, 220 nM
# Experimental: (§4) Cells were harvested using Trypsin-EDTA at the designated time points. When total cells for each well were counted with a Beckman-Coulter Z1 Particle Characterization Unit, the vertical axis represents 1/20 of cell number in the Figures attached to the specification, while when counted with a Beckman-Coulter Vi-Cell, the vertical axis represents cell number in the Figures. Two 48-well plates were used per cell line, and they were measured at 0 h, 12 h, 24 h, 48 h, 4 d and 7 d, respectively.
# (§5) The viability was determined by using the trypan blue staining in the well of cell counting.
# in vitro = assay type: cell-based; conditions: human
# Experimental: as §4, §5
# HCC 1419 [2] = assay: XTT cell viability assay, HCC 1419; conditions: for The absorbance, Mean value / The absorbance / The absorbance, group - Blank: XTT 500 nm; for The absorbance: single wells
# Experimental: Cancer cell lines HCC 1419, MCF-7, MDA-MB-468, SKBR3, PC3, HT1299, Saos-2, C-6, AsPc, MDA-MB-231, RKO, HeLa and TT, and normal cell lines HME 50 HT, BJ and CCD-1074sk were tested for changes in metabolism (XTT assay) and cell death (cell counts).
# Cells were plated into 48-well Corning CellBind™ plates at densities of 20,000 cells for normal cells and 10,000˜20,000 cells for cancer cells. 24 to 48 h after plating, cells were treated with the composition according to the invention at concentrations of 4.5e-2M. The first time point treated with the composition of the invention is 0 h. At 3 days after the first treatment with the composition of the invention, medium was changed and the composition of the invention at the same concentrations were added to the cultured cells.
# The XTT assay is an accepted analysis technique for viability and cytotoxicity of anticancer drugs or other pharmaceutical compositions. Cells were seeded in a 96-well tissue culture plate at a density of 10,000 cells for normal cells and 5,000 cells for cancer cells. After incubation period, the formazan dye formed was quantitated using an ELISA reader. The optimal wavelength used in experiments was 500 nm, and it was measured at 0 h, 12 h, 24 h, 48 h, 4 d and 7 d, respectively. The obtained values were generated using the software SoftMax Pro 4.8.
# The cell viability was calculated according to the manufacturer's instructions as follows (the term “blank” means XTT in medium only):
# Cellular cytotoxicity was calculated according to the manufacturer's instructions as follows: […]
# BJ = assay type: cell-based; conditions: for cell counts, Mean value / cell counts: BJ; for cell counts: single count
# Experimental: as §1, §2, §3
# (15) BJ—Normal Fibroblasts BJ cells were derived from normal foreskin of a newborn, and have a long lifespan in comparison with other normal human fibroblast cells. Although they have the capacity to proliferate to a maximum of 72 population doublings before the onset of senescence, they are telomerase negative.
# TT = assay: Viability by trypan blue staining, TT; assay type: cell-based; conditions: for viability (%) calculated from the cell counts: single value
# Experimental: as §4, §5
# [3] = viability (%) calculated from the cell counts
# [4] = HCC 1419, 1st week (LC50), 24 h
# [5] = HCC 1419, 1st week (LC50), 48 h
# [6] = HCC 1419, 2nd week (recovery), 0 h
# [7] = HCC 1419, 2nd week (recovery), 48 h
# [8] = HCC 1419, 2nd week (recovery), 4 d
structure (smiles),measurement,setting,value
CC(=O)O[C@H]1C(=O)[C@@]2(C)[C@H]([C@H](OC(=O)c3ccccc3)[C@]3(O)C[C@H](OC(=O)[C@H](O)[C@@H](NC(=O)c4ccccc4)c4ccccc4)C(C)=C1C3(C)C)[C@]1(OC(C)=O)CO[C@@H]1C[C@@H]2O [Taxol],growth pattern of the cells in the well (microscopy),HCC 1419 [1],"growing in a diffuse, spreading pattern over the whole well"
same,number of cancer cells (course),HCC 1419 [1]; 1st week (LC50) and 2nd week (recovery),did not decreased any more and was maintained
same,"cell counts, Mean value","HCC 1419 [1]; 1st week (LC50), 0 h",3156
same,cell counts,"HCC 1419 [1]; 1st week (LC50), 0 h",3055 and 2626 and 3788
same,"cell counts, Mean value","HCC 1419 [1]; 1st week (LC50), 12 h",3479
same,cell counts,"HCC 1419 [1]; 1st week (LC50), 12 h",3434 and 3451 and 3553
same,"cell counts, Mean value","HCC 1419 [1]; 1st week (LC50), 24 h",3036
same,cell counts,"HCC 1419 [1]; 1st week (LC50), 24 h",2957 and 3488 and 2664
same,"cell counts, Mean value","HCC 1419 [1]; 1st week (LC50), 48 h",2978
same,cell counts,"HCC 1419 [1]; 1st week (LC50), 48 h",2232 and 3502 and 3199
same,"cell counts, Mean value","HCC 1419 [1]; 1st week (LC50), 4 d",2544
same,cell counts,"HCC 1419 [1]; 1st week (LC50), 4 d",1716 and 2940 and 2975
same,"cell counts, Mean value","HCC 1419 [1]; 1st week (LC50), 7 d",1741
same,cell counts,"HCC 1419 [1]; 1st week (LC50), 7 d",1718 and 1710 and 1794
same,"cell counts, Mean value","HCC 1419 [1]; 2nd week (recovery), 0 h",8878
same,cell counts,"HCC 1419 [1]; 2nd week (recovery), 0 h",8472 and 8522 and 9639
same,cell counts,"HCC 1419 [1]; 2nd week (recovery), 24 h",7966
same,cell counts,"HCC 1419 [1]; 2nd week (recovery), 48 h",4901
same,cell counts,"HCC 1419 [1]; 2nd week (recovery), 7 d",7316 and 3792
same,cell counts,"HeLa; 1st week (LC50), 0 h",158000 and 136000 and 184000
same,"cell counts, Mean value","HeLa; 1st week (LC50), 0 h",159333
same,cell counts,"HeLa; 1st week (LC50), 24 h",158000 and 276000 and 219000
same,"cell counts, Mean value","HeLa; 1st week (LC50), 24 h",217667
same,cell counts,"HeLa; 1st week (LC50), 48 h",105000 and 70000 and 79000
same,"cell counts, Mean value","HeLa; 1st week (LC50), 48 h",84667
same,cell counts,"HeLa; 1st week (LC50), 4 d",26000 and 39000 and 31000
same,"cell counts, Mean value","HeLa; 1st week (LC50), 4 d",32000
same,cell counts,"HeLa; 1st week (LC50), 7 d",36000 and 34000 and 32000
same,"cell counts, Mean value","HeLa; 1st week (LC50), 7 d",34000
same,cell counts,"HeLa; 2nd week (recovery), 0 h",31000 and 34000 and 35000
same,"cell counts, Mean value","HeLa; 2nd week (recovery), 0 h",33333
same,"cell counts, Mean value","HeLa; 2nd week (recovery), 24 h",23333
same,cell counts,"HeLa; 2nd week (recovery), 48 h",12000 and 23500 and 22000
same,"cell counts, Mean value","HeLa; 2nd week (recovery), 48 h",19167
same,cell counts,"HeLa; 2nd week (recovery), 4 d",22000 and 18000 and 13000
same,"cell counts, Mean value","HeLa; 2nd week (recovery), 4 d",17667
same,cell counts,"HeLa; 2nd week (recovery), 7 d",18000
same,"cell counts, Mean value","HeLa; 2nd week (recovery), 7 d",18000
same,"viability (%), Mean value",CCD-1074sk; 0 h,79%
same,viability (%) calculated from the cell counts,CCD-1074sk; 48 h,83%
same,viability (%) calculated from the cell counts,CCD-1074sk; 4 d,33%
same,"viability at 0 h, 2.2e-07 M",in vitro; [3],70%
same,"viability at 24 h, 2.2e-07 M",in vitro; [3],71%
same,"viability at 4 d, 2.2e-07 M",in vitro; [3],43%
same,"viability at 0 h, 2.2e-07 M","in vitro; viability (%), Mean value",73%
same,"viability at 24 h, 2.2e-07 M","in vitro; viability (%), Mean value",80%
same,"viability at 4 d, 2.2e-07 M","in vitro; viability (%), Mean value",38%
same,"The absorbance, Mean value","HCC 1419 [2]; HCC 1419, 1st week (LC50), 0 h",2.5924
same,The absorbance,"HCC 1419 [2]; HCC 1419, 1st week (LC50), 0 h",2.5534 and 2.6558 and 2.5679
same,"The absorbance, group - Blank","HCC 1419 [2]; HCC 1419, 1st week (LC50), 12 h",2.0317
same,"The absorbance, Mean value",HCC 1419 [2]; [4],2.8401
same,"The absorbance, group - Blank",HCC 1419 [2]; [4],2.5035
same,The absorbance,HCC 1419 [2]; [4],2.9427 and 2.856 and 2.7216
same,"The absorbance, Mean value",HCC 1419 [2]; [5],3.4706
same,"The absorbance, group - Blank",HCC 1419 [2]; [5],3.1340
same,The absorbance,HCC 1419 [2]; [5],3.7945 and 2.9086 and 3.7087
same,"The absorbance, Mean value","HCC 1419 [2]; HCC 1419, 1st week (LC50), 4 d",2.6666
same,The absorbance,"HCC 1419 [2]; HCC 1419, 1st week (LC50), 4 d",2.6667 and 2.7014 and 2.6316
same,"The absorbance, Mean value","HCC 1419 [2]; HCC 1419, 1st week (LC50), 7 d",2.5386
same,The absorbance,"HCC 1419 [2]; HCC 1419, 1st week (LC50), 7 d",2.6877 and 2.5421
same,"The absorbance, Mean value",HCC 1419 [2]; [6],2.4911
same,The absorbance,HCC 1419 [2]; [6],2.7348
same,The absorbance,"HCC 1419 [2]; HCC 1419, 2nd week (recovery), 24 h",2.4388
same,"The absorbance, Mean value",HCC 1419 [2]; [7],2.6525
same,"The absorbance, group - Blank",HCC 1419 [2]; [7],2.4436
same,The absorbance,HCC 1419 [2]; [7],2.6611 and 2.6375 and 2.6588
same,"The absorbance, Mean value",HCC 1419 [2]; [8],2.6058
same,The absorbance,HCC 1419 [2]; [8],2.7024 and 2.5033 and 2.6116
same,The viability,"HCC 1419 [2]; HCC 1419, XTT, 1/100 of %, 2nd week (recovery), 48 h",0.8937
same,The viability,"HCC 1419 [2]; human, 12 h, 220 nM",0.7658
same,The viability,"HCC 1419 [2]; human, 48 h, 220 nM",1.1461
same,The viability,"HCC 1419 [2]; human, 7 d, 220 nM",0.9883
same,appearance of normal cells (microscopy),BJ,fully destroyed
same,proliferation of normal cells,BJ,decreased due to stress by toxicity of Taxol
same,"cell counts, Mean value","BJ; 1st week (LC50), 0 h",16333
same,cell counts,"BJ; 1st week (LC50), 0 h",14000 and 17000 and 18000
same,"cell counts, Mean value","BJ; 1st week (LC50), 12 h",11000
same,cell counts,"BJ; 1st week (LC50), 12 h",12000 and 9000
same,"cell counts, Mean value","BJ; 1st week (LC50), 24 h",12667
same,cell counts,"BJ; 1st week (LC50), 24 h",10000 and 17000 and 11000
same,"cell counts, Mean value","BJ; 1st week (LC50), 48 h",11667
same,cell counts,"BJ; 1st week (LC50), 48 h",14000 and 10000 and 11000
same,"cell counts, Mean value","BJ; 1st week (LC50), 4 d",6333
same,cell counts,"BJ; 1st week (LC50), 4 d",9000 and 5000
same,"cell counts, Mean value","BJ; 1st week (LC50), 7 d",6667
same,"cell counts, Mean value","BJ; 2nd week (recovery), 0 h",19
same,"cell counts, Mean value","BJ; 2nd week (recovery), 24 h",8
same,cell counts,"BJ; 2nd week (recovery), 24 h",7 and 9
same,"cell counts, Mean value","BJ; 2nd week (recovery), 48 h",13
same,cell counts,"BJ; 2nd week (recovery), 48 h",8 and 14 and 16
same,"cell counts, Mean value","BJ; 2nd week (recovery), 4 d",11
same,"cell counts, Mean value","BJ; 2nd week (recovery), 7 d",28
same,cell counts,"BJ; 2nd week (recovery), 7 d",35 and 29 and 19
same,viability (%),"TT; 1st week (LC50), 0 h",79.5% and 80.8% and 78.4%
same,"viability (%), Mean value","TT; 1st week (LC50), 0 h",79.6%
same,viability (%),"TT; 1st week (LC50), 24 h",76.5% and 64.7% and 72.7%
same,"viability (%), Mean value","TT; 1st week (LC50), 24 h",71.3%
same,viability (%),"TT; 1st week (LC50), 48 h",72.5% and 72% and 76.9%
same,"viability (%), Mean value","TT; 1st week (LC50), 48 h",73.8%
same,viability (%),"TT; 1st week (LC50), 4 d",70.1%
same,"viability (%), Mean value","TT; 1st week (LC50), 4 d",67.8%
same,viability (%),"TT; 1st week (LC50), 7 d",75% and 37.5%
same,"viability (%), Mean value","TT; 1st week (LC50), 7 d",59.7%
same,"viability (%), Mean value","TT; 2nd week (recovery), 0 h, trypan blue, mean value",65%
same,viability (%) calculated from the cell counts,"TT; 2nd week (recovery), 0 h, trypan blue",70% and 75% and 50%
same,"viability (%), Mean value","TT; 2nd week (recovery), 24 h, trypan blue, mean value",41.1%
same,"viability (%), Mean value","TT; 2nd week (recovery), 48 h, trypan blue, mean value",35.1%
same,"viability (%), Mean value","TT; 2nd week (recovery), 4 d, trypan blue, mean value",37.6%
same,"viability (%), Mean value","TT; 2nd week (recovery), 7 d, trypan blue, mean value",33.5%
same,viability (%) calculated from the cell counts,"TT; 2nd week (recovery), 7 d, trypan blue",25% and 42.3%
